Assay results from US20260200928A1, “THERAPEUTIC COMPOUNDS” (Sanofi, priority 2022, published 2026).

target: T1, human IL-17A (Homo sapiens, UniProt Q16552); assay: IL-17A AlphaLISA competition assay (block of IL-17A binding to its receptor IL-17RA); conditions: mean IC50 (n≥2), block of IL-17A binding to IL-17RA
T1 construct: purchased R&D Systems 7955-IL/CF
T1 sequence (Q16552 24-155): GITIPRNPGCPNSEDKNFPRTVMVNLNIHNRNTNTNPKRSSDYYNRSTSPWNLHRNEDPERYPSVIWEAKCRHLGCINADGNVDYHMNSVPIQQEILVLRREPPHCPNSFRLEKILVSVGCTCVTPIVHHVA
Method in brief: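 Human recombinant IL-17A (7.5 nM stock) pre-incubated 30 min at RT with compound, then IL-17RA/Fc (5 nM stock) added for 90 min; AlphaLISA read with anti-Fc acceptor beads, biotinylated anti-IL-17A antibody (5 nM) and streptavidin donor beads (3 h, dark). IC50 from 4-parameter logistic fit, normalised to DMSO and 4 μM reference inhibitor; n≥2.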

Compound	IC50 [µM]
Cn1nccc1C(=O)N[C@H](C(=O)Nc1cc(OC2CCNC2=O)ccn1)[C@H]1CC[C@H](C)CC1 (stereo partly drawn) [Example 118, 1-methyl-N-((1S)-1-((1r,4S)-4-methylcyclohexyl)-2-oxo-2-((4-((2-oxopyrrolidin-3-yl)oxy)pyridin-2-yl)amino)ethyl)-1H-pyrazole-5-carboxamide]	8.97
CC(C)n1nccc1C(=O)N[C@H](C(=O)Nc1cc(CN2C[C@@H](C(F)(F)F)NC2=O)ccn1)[C@@H](C)OC(C)(C)C [Example 127, N-((2S,3R)-3-(tert-butoxy)-1-oxo-1-((4-(((S)-2-oxo-4-(trifluoromethyl)-imidazolidin-1-yl)methyl)-pyridin-2-yl)amino)butan-2-yl)-1-isopropyl-1H-pyrazole-5-carboxamide]	0.44
Cc1nonc1C(=O)N[C@H](C(=O)Nc1cc(CN2C[C@@H](C(F)(F)F)NC2=O)ccn1)[C@@H](C)OC(C)(C)C [Example 128, N-((2S,3R)-3-(tert-butoxy)-1-oxo-1-((4-(((S)-2-oxo-4-(trifluoromethyl)-imidazolidin-1-yl)methyl)-pyridin-2-yl)amino)butan-2-yl)-4-methyl-1,2,5-oxa-diazole-3-carboxamide]	2.35
CCc1nonc1C(=O)N[C@H](C(=O)Nc1cc(CN2C[C@@H](C(F)(F)F)NC2=O)ccn1)[C@@H](C)OC(C)(C)C [Example 129, N-((2S,3R)-3-(tert-butoxy)-1-oxo-1-((4-(((S)-2-oxo-4-(trifluoromethyl)-imidazolidin-1-yl)methyl)-pyridin-2-yl)amino)butan-2-yl)-4-ethyl-1,2,5-oxa-diazole-3-carboxamide]	0.533
CC(C)c1nocc1C(=O)N[C@H](C(=O)Nc1cc(CN2C[C@@H](C(F)(F)F)NC2=O)ccn1)[C@@H](C)OC(C)(C)C [Example 130, N-((2S,3R)-3-(tert-butoxy)-1-oxo-1-((4-(((S)-2-oxo-4-(trifluoromethyl)-imidazolidin-1-yl)methyl)-pyridin-2-yl)amino)butan-2-yl)-3-isopropyl-isoxazole-4-carboxamide]	0.35
[2H]C(c1ccnc(NC(=O)[C@@H](NC(=O)OC(C)(C)C)[C@H]2CC[C@H](C)CC2)c1)N1C[C@@H](C(F)(F)F)NC1=O (stereo partly drawn) [Example 151, Tert-butyl ((1S)-1-((1r,4S)-4-methylcyclohexyl)-2-oxo-2-((4-(((S)-2-oxo-4-(trifluoromethyl)-imidazolidin-1-yl)methyl-d)pyridin-2-yl)amino)ethyl)carbamate]	0.401
C[C@H]1CC[C@H]([C@H](NC(=O)c2nonc2C2CC2)C(=O)Nc2cc(C[C@@H]3C[C@@H](C(F)(F)F)NC3=O)ccn2)CC1 [Example 152, 4-cyclopropyl-N—((S)-1-((1r,4S)-4-methylcyclohexyl)-2-oxo-2-((4-(((3R,5S)-2-oxo-5-(trifluoromethyl)pyrrolidin-3-yl)methyl)pyridin-2-yl)amino)ethyl)-1,2,5-oxadiazole-3-carboxamide]	2.03
CCn1nccc1C(=O)N[C@H](C(=O)Nc1cc(C[C@@H]2C[C@@H](C(F)(F)F)NC2=O)ccn1)[C@H]1CC[C@H](C)CC1 [Example 153, 1-ethyl-N—((S)-1-((1r,4S)-4-methylcyclohexyl)-2-oxo-2-((4-(((3R,5S)-2-oxo-5-(trifluoromethyl)pyrrolidin-3-yl)methyl)pyridin-2-yl)amino)ethyl)-1H-pyrazole-5-carboxamide]	0.171
CCn1nccc1C(=O)N[C@H](C(=O)Nc1cc(C[C@H]2C[C@@H](C(F)(F)F)NC2=O)ccn1)[C@H]1CC[C@H](C)CC1 [Example 155, 1-ethyl-N—((S)-1-((1r,4S)-4-methylcyclohexyl)-2-oxo-2-((4-(((3S,5S)-2-oxo-5-(trifluoromethyl)pyrrolidin-3-yl)methyl)pyridin-2-yl)amino)ethyl)-1H-pyrazole-5-carboxamide]	0.029
CCc1cnoc1C(=O)N[C@H](C(=O)Nc1cc(C(CC(F)(F)F)NC(=O)CCC(F)(F)F)ccn1)C1CCC(F)(F)CC1 (stereo partly drawn) [Example 157, N-((1S)-1-(4,4-difluorocyclohexyl)-2-oxo-2-((4-(3,3,3-trifluoro-1-(4,4,4-trifluorobutanamido)propyl)pyridin-2-yl)amino)ethyl)-4-ethylisoxazole-5-carboxamide]	0.117
Cc1cn([C@H](C)c2ccnc(NC(=O)[C@@H](NC(=O)c3nonc3C3CC3)C3CCC(F)(F)CC3)c2)c(=O)[nH]1 [Example 168, 4-Cyclopropyl-N—((S)-1-(4,4-difluorocyclohexyl)-2-((4-((R)-1-(4-methyl-2-oxo-2,3-dihydro-1H-imidazol-1-yl)ethyl)pyridin-2-yl)amino)-2-oxoethyl)-1,2,5-oxadiazole-3-carboxamide]	5.79
CCc1conc1C(=O)N[C@H](C(=O)Nc1cc([C@@H](COC)N2CC(F)(F)CNC2=O)ccn1)C1CCC(F)(F)CC1 [Example 177, N-((S)-2-((4-((S)-1-(5,5-difluoro-2-oxotetrahydropyrimidin-1(2H)-yl)-2-methoxyethyl)pyridin-2-yl)amino)-1-(4,4-difluorocyclohexyl)-2-oxoethyl)-4-ethylisoxazole-3-carboxamide]	0.024
CCc1nocc1C(=O)N[C@H](C(=O)Nc1cc([C@@H](COC)N2CC(F)(F)CNC2=O)ccn1)C1CCC(F)(F)CC1 [Example 178, N-((S)-2-((4-((S)-1-(5,5-difluoro-2-oxotetrahydropyrimidin-1(2H)-yl)-2-methoxyethyl)pyridin-2-yl)amino)-1-(4,4-difluorocyclohexyl)-2-oxoethyl)-3-ethylisoxazole-4-carboxamide]	0.053

More lines, now with the values ahead:

IC50 [µM]	Compound
3.99	CC(C)n1nccc1C(=O)N[C@H](C(=O)Nc1cc(OC2CCNC2=O)ccn1)[C@H]1CC[C@H](C)CC1 (stereo partly drawn) [Example 119, 1-isopropyl-N-((1S)-1-((1r,4S)-4-methylcyclohexyl)-2-oxo-2-((4-((2-oxopyrrolidin-3-yl)oxy)pyridin-2-yl)amino)ethyl)-1H-pyrazole-5-carboxamide]
1.46	COCC(c1ccnc(NC(=O)[C@@H](NC(=O)c2ncncc2C)[C@H]2CC[C@H](C)CC2)c1)N1C[C@H](C(F)(F)F)NC1=O (stereo partly drawn) [Example 135, N-((1S)-2-((4-(2-methoxy-1-((S)-2-oxo-4-(trifluoromethyl)imidazolidin-1-yl)ethyl)pyridin-2-yl)amino)-1-((1r,4S)-4-methylcyclohexyl)-2-oxoethyl)-5-methylpyrimidine-4-carboxamide]
0.527	CC(C)n1nccc1C(=O)N[C@H](C(=O)Nc1cc(C[C@@H]2C[C@@H](C(F)(F)F)NC2=O)ccn1)[C@H]1CC[C@H](C)CC1 [Example 154, 1-isopropyl-N—((S)-1-((1r,4S)-4-methylcyclohexyl)-2-oxo-2-((4-(((3R,5S)-2-oxo-5-(trifluoromethyl)pyrrolidin-3-yl)methyl)pyridin-2-yl)amino)ethyl)-1H-pyrazole-5-carboxamide]
0.053	CC(C)n1nccc1C(=O)N[C@H](C(=O)Nc1cc(C[C@H]2C[C@@H](C(F)(F)F)NC2=O)ccn1)[C@H]1CC[C@H](C)CC1 [Example 156, 1-isopropyl-N—((S)-1-((1r,4S)-4-methylcyclohexyl)-2-oxo-2-((4-(((3S,5S)-2-oxo-5-(trifluoromethyl)pyrrolidin-3-yl)methyl)pyridin-2-yl)amino)ethyl)-1H-pyrazole-5-carboxamide]
0.183	CC(C)n1nccc1C(=O)N[C@H](C(=O)Nc1cc(C(NC(=O)CC(F)(F)F)C2CC2)ccn1)C1CCC(F)(F)CC1 (stereo partly drawn) [Example 160, N-((1S)-2-((4-(cyclopropyl(3,3,3-trifluoropropanamido)methyl)pyridin-2-yl)amino)-1-(4,4-difluorocyclohexyl)-2-oxoethyl)-1-isopropyl-1H-pyrazole-5-carboxamide]
0.615	CCc1nocc1C(=O)N[C@H](C(=O)Nc1cc(C(NC(=O)CCC(F)(F)F)C2CC2)ccn1)C1CCC(F)(F)CC1 (stereo partly drawn) [Example 161, N-((1S)-2-((4-(cyclopropyl(4,4,4-trifluorobutanamido)methyl)pyridin-2-yl)amino)-1-(4,4-difluorocyclohexyl)-2-oxoethyl)-3-ethylisoxazole-4-carboxamide]
0.222	CC(C)n1nccc1C(=O)N[C@H](C(=O)Nc1cc([C@@H](C)NC(=O)CCC(F)(F)F)ccn1)C1CCC(F)(F)CC1 [Example 167, N—((S)-1-(4,4-difluorocyclohexyl)-2-oxo-2-((4-((R)-1-(4,4,4-trifluoro-butanamido)ethyl)pyridin-2-yl)amino)ethyl)-1-isopropyl-1H-pyrazole-5-carboxamide]
0.187	CCc1nocc1C(=O)N[C@H](C(=O)Nc1cc(C(C)(C)N2C[C@@H](C(F)(F)F)NC2=O)ccn1)C1CCC(F)(F)CC1 [Example 173, N-((S)-1-(4,4-difluorocyclohexyl)-2-oxo-2-((4-(2-((S)-2-oxo-4-(trifluoromethyl)imidazolidin-1-yl)propan-2-yl)pyridin-2-yl)amino)ethyl)-3-ethylisoxazole-4-carboxamide]
0.362	CCn1nccc1C(=O)N[C@H](C(=O)Nc1cc(C(C)(C)N2C[C@@H](C(F)(F)F)NC2=O)ccn1)C1CCC(F)(F)CC1 [Example 174, N-((S)-1-(4,4-difluorocyclohexyl)-2-oxo-2-((4-(2-((S)-2-oxo-4-(trifluoromethyl)imidazolidin-1-yl)propan-2-yl)pyridin-2-yl)amino)ethyl)-1-ethyl-1H-pyrazole-5-carboxamide]
0.083	CCn1nccc1C(=O)N[C@H](C(=O)Nc1cc([C@@H](COC)N2CC(F)(F)CNC2=O)ccn1)C1CCC(F)(F)CC1 [Example 179, N-((S)-2-((4-((S)-1-(5,5-difluoro-2-oxotetrahydropyrimidin-1(2H)-yl)-2-methoxyethyl)pyridin-2-yl)amino)-1-(4,4-difluorocyclohexyl)-2-oxoethyl)-1-ethyl-1H-pyrazole-5-carboxamide]
